How the values were obtained:
hPPARdelta = molecular target: T1, hPPARdelta (Homo sapiens, UniProt Q03181); experiment: Gal4-hPPARdelta transactivation assay in COS-7 cells (luciferase); type: cell-based
T1 construct: Gal4-hPPARδ(LBD); Gal4 (fusion partner); expressed in transfected cells; host or cells: COS-7 (monkey kidney)
T1 sequence (Q03181 211-439 limits assumed): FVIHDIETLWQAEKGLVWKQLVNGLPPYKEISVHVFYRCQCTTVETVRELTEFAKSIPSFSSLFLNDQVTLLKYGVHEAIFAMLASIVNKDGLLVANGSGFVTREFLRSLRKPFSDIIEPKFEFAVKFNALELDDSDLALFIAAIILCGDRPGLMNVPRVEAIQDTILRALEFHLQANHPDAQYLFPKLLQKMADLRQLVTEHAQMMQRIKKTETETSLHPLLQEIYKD
How it was run: (§1)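 COS-7 cells transiently co-transfected with Gal4-hPPAR chimeras and a Gal4(RE)_TkpGL3 luciferase reporter (1/50 ratio) were seeded at 20,000 cells/well for 4 h, then treated in 2% lipid-free synthetic serum medium (0.1% DMSO). EC50 and Hill slope came from fitted luciferase curves. Emax is relative to fenofibrate 100 μM (α), rosiglitazone 10 μM (γ) or GW501516 1 μM (δ).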

hPPARalpha = molecular target: T2, hPPARalpha (Homo sapiens, UniProt Q07869); experiment: Gal4-hPPARalpha transactivation assay in COS-7 cells (luciferase); type: cell-based
T2 construct: Gal4-hPPARα(LBD); Gal4 (fusion partner); expressed in transfected cells; host or cells: COS-7 (monkey kidney)
T2 sequence (Q07869 239-466 limits assumed): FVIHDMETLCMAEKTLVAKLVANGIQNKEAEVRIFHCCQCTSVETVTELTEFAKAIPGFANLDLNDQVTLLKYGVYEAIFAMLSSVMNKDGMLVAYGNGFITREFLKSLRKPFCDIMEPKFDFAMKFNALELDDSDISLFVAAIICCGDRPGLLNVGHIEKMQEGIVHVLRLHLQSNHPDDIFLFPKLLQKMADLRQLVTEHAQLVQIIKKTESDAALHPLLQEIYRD
How it was run: as §1

[1] = system: brain amyloid-beta levels; experiment: Alzheimer's disease model (APPPS1 mice): brain amyloid-beta levels by ELISA; type: in vivo, mouse; settings: 60 days, +/- standard deviation
[2] = Compound pharmacokinetics study in mice (plasma and brain); type: in vivo; settings: mouse; for AUC(0-t): iv (2 mpk) or PO (10 mpk), followed for 24 hours
Description: Compound Pharmacokinetics Study in Mice
The compound was administered to six male swiss mice (five weeks old) by the PO route and six male mice by the iv route (caudal vein). […] For the PO route (10 mg/kg), the compound was dissolved in a solution of 0.5% Methyl cellulose (ref sigma M0262) and 0.3% Polysorbate 80 (Tween 80—ref sigma P8074). During the iv administration and blood sampling animals were anesthetized with Isofluorane® (from Belamont) using an anaesthetic system (Minerve). At the precise time-point, blood samplings were done at the retro-orbital sinus, with a capillary tube. The blood volume collected per each time-point was 0.2-0.3 ml. Blood samples were collected into tubes containing both lithium and heparin and then centrifuged at 2500 rpm at 4° C. Plasma was removed and transferred into polypropylene tubes. Individual plasma aliquots were frozen at −20° C. (±5° C.) and stored until analysis.
After blood sampling, the animals were perfused with 7 ml cold saline solution directly into the heart to extract the maximum of blood from the brain vasculature. Animals were then beheaded and the brain tissue collected and frozen at −20° C. (±5° C.) and stored until analysis. Prior to the sample analysis, the suitability of the analytical method to detect the compounds to be evaluated was performed as described below. The molecular and daughter ions were selected for each molecule by direct infusion into the MS-MS system. For those plasma samples which are mixed prior to analysis, precaution was taken to avoid mixing common moieties both with regards to the parent compounds as well as potential metabolites. According to the expected sensitivity, 8 point calibration standards (1, 5, 10, 50, 100, 500, 1000 and 5000 ng/mL) were run using standard conditions which consist to LC/MS/MS system with C18 column after precipitation of the plasma proteins with acetonitrile before the start of the analytical test. Calibration standards were performed in each matrix (plasma and brain). Prior to analysis, 100 μL of each plasma sample was mixed with 300 μL acetonitrile. Following protein precipitation, samples were vortex mixed for 30 seconds, centrifuged 5 min at 15000 tr/min and the supernatant was removed. Analyses were performed using LC/MS/MS determination according to previous analytical test results. Brains were homogenized with a potter using water (1/1, w/w). 100 μl of the homogenate was mixed with 100 μl of acetonitrile. The mixture was mixed (Vortex) for 30 seconds, then centrifuged during 5 min at 15000 tr/min. Brain homogenate supernatants were directly measured by LC/MS/MS after centrifugation. LC-MS/MS system was used with a C18 Kromasil column and API4000® from Applied Biosystem or Quattro® from Waters as mass spectrometers.

[3] = maximal relative activation vs reference, listed as cpd 14-1-2

EC50 (hPPARdelta; Gal4-hPPARδ(LBD) transactivation): 4 nM | Gal4-hPPARδ(LBD) TOP (% ref) (hPPARdelta; [3]): 90 % ref | EC50 (hPPARalpha; Gal4-hPPARα(LBD) transactivation): 12 nM | Gal4-hPPARα(LBD) TOP (% ref) (hPPARalpha; [3]): 46 % ref | bioavailability ([2]; male, Swiss, plasma, PO (10 mpk) versus iv (2 mpk), read-out: F % (bioavailability)): 93% | AUC(0-t) ([2]; male, Swiss, brain): 26700 ng·h/mL | Kp ([2]; male, Swiss, from AUC comparison brain to plasma, read-out: part of the administered compound that penetrates into the brain): 0.37 | AUC(0-t) ([2]; male, Swiss, plasma): 71800 ng·h/mL | brain/plasma ratio ([2]; AUC comparison (brain exposure to plasma exposure ratio)): 0.37 | F % (bioavailability) ([2]; PO (10 mpk) versus iv (2 mpk)): 92.9%
Structure (SMILES): COC(c1ccc(OC(F)(F)F)cc1)C1CC1c1cc(C)c(OC(C)(C)C(=O)O)c(C)c1 (single isomer, unassigned) [Cpd 14-1-2, 2-(4-(2-(methoxy(4-(trifluoromethoxy)phenyl)methyl)cyclopropyl)-2,6-dimethylphenoxy)-2-methylpropanoic acid]
amyloid-beta peptide Aβ 1-38, mean reduction from untreated APPPS1 mice ([1]; 1 mpk per day): 76 % +/− 16 % (**) | amyloid-beta peptide Aβ 1-40, mean reduction from untreated APPPS1 mice ([1]; 1 mpk per day): 55 % +/− 17 % (**) | amyloid-beta peptide Aβ 1-42, mean reduction from untreated APPPS1 mice ([1]; 1 mpk per day): 56 % +/− 19 % (**) | amyloid-beta peptide Aβ 1-38, mean reduction from untreated APPPS1 mice ([1]; 10 mpk per day): 97 % +/− 3 % (**) | amyloid-beta peptide Aβ 1-40, mean reduction from untreated APPPS1 mice ([1]; 10 mpk per day): 72 % +/− 14 % (**) | amyloid-beta peptide Aβ 1-42, mean reduction from untreated APPPS1 mice ([1]; 10 mpk per day): 74 % +/− 14 % (**)
